Assay [1] can be described thus: (§1) Cytotoxicity against human HuH7 cells assessed as inhibition of cell proliferation at 40 ug/ml after 72 hrs by MTT assay. The class given is functional. Particulars: Huh-7, 72 h.
Assay [2] deals with HepG2. Put plainly: Cytotoxicity against human HepG2 cells assessed as inhibition of cell proliferation after 72 hrs by MTT assay. The class given is functional, cell-based. Particulars: for IC50: HepG2, 72 h.
Assay [3] can be described thus: (§2) Cytotoxicity against human BCG823 cells assessed as inhibition of cell proliferation after 72 hrs by MTT assay. The class given is functional, cell-based. Particulars: BCG823, 72 h.
A short description of assay [4]: (§3) Cytotoxicity against human HuH7 cells assessed as inhibition of cell proliferation after 72 hrs by MTT assay. The class given is functional, cell-based. Particulars: Huh-7, 72 h.
Assay [5] concerns HepG2. Put plainly: Induction of apoptosis in human HepG2 cells assessed as early apoptotic cells at IC50 concentration after 24 hrs by Annexin V-FITC/propidium iodide staining-based flow cytometry (reference value: 1.2 %). The class given is functional.
Assay [6] has as its system HepG2. Put plainly: Cytotoxicity against human HepG2 cells assessed as inhibition of cell proliferation at 40 ug/ml after 72 hrs by MTT assay. The class given is functional, cell-based.
In assay [7] the test system is BCG823. Put plainly: Cytotoxicity against human BCG823 cells assessed as inhibition of cell proliferation at 40 ug/ml after 72 hrs by MTT assay. The class given is functional, cell-based. Background: Formazan colour is commonly taken as a measure of viable cells.
Assay [8] deals with Huh-7. Described as §1. The class given is functional.
Assay [9] concerns BCG823. The assay is described as §2. The class given is functional, cell-based.
Assay [10] deals with HepG2. Kind of assay: Induction of apoptosis in human HepG2 cells assessed as viable cells at IC50 concentration after 24 hrs by Annexin V-FITC/propidium iodide staining-based flow cytometry (reference value: 97 %). The class given is functional.
The subject of assay [11] is HepG2. Kind of assay: Induction of apoptosis in human HepG2 cells assessed as late apoptotic cells at IC50 concentration after 24 hrs by Annexin V-FITC/propidium iodide staining-based flow cytometry (reference value: 0.2 %). The class given is functional. In general terms: In flow cytometry, cells or beads pass a laser one at a time.
In assay [12] the test system is HepG2. Put plainly: Induction of apoptosis in human HepG2 cells assessed as necrotic cells at IC50 concentration after 24 hrs by Annexin V-FITC/propidium iodide staining-based flow cytometry (reference value: 1.6 %). The class given is functional.
For assay [13], the system named is HepG2. Put plainly: Induction of apoptosis in human HepG2 cells assessed as viable cells at 2 times IC50 after 24 hrs by Annexin V-FITC/propidium iodide staining-based flow cytometry (reference value: 97 %). The class given is functional.
Assay [14] relates to HepG2. Kind of assay: Induction of apoptosis in human HepG2 cells assessed as early apoptotic cells at 2 times IC50 after 24 hrs by Annexin V-FITC/propidium iodide staining-based flow cytometry (reference value: 1.2 %). The class given is functional.
The subject of assay [15] is HepG2. Kind of assay: Induction of apoptosis in human HepG2 cells assessed as late apoptotic cells at 2 times IC50 after 24 hrs by Annexin V-FITC/propidium iodide staining-based flow cytometry (reference value: 0.2 %). The class given is functional.
The test system of assay [16] is HepG2. Put plainly: Induction of apoptosis in human HepG2 cells assessed as necrotic cells at 2 times IC50 after 24 hrs by Annexin V-FITC/propidium iodide staining-based flow cytometry (reference value: 1.6 %). The class given is functional.
Assay [17] has as its system Huh-7. The assay is described as §3. The class given is functional, cell-based.

Values after ≈ are worked out from the molar mass of the structure shown. Active and inactive are the calls of the source. The calls are words filed in the database; no cut-off is given here.

In the case of `O=C(N/N=C/c1c[nH]c2ccccc12)c1ccc(CSc2nc3ccccc3s2)cc1`, in assay [1], the inhibition (usually the share of the control response that was lost under treatment) at 40 µg/mL was determined as 74%. In addition, the values for the IC50 in assay [2], in [3] and in assay [4] were > 80 µg/mL, > 80 µg/mL and 7.74 µg/mL (≈ 17.5 µM), respectively.
On to `Cc1cc(C)nc(SCc2ccc(C(=O)N/N=C/c3c[nH]c4ccccc34)cc2)n1`, for which the IC50 (in general, the midpoint of a concentration-inhibition curve) stood at 34.1 µg/mL (≈ 82.2 µM) in assay [2], 35.5 µg/mL (≈ 85.5 µM) in assay [3] and 23.2 µg/mL (≈ 55.9 µM) in assay [4].
As for `O=C1Nc2ccccc2/C1=N/NC(=O)c1ccc(CSc2nc3ccccc3s2)cc1`, the Activity in [5] was 5.5%; in [10] it was 89.3%; in [11], 3.7%; in assay [12], 1.6%; in [13] it was 77.7%; in assay [14] it was 14.5%. Moreover, the Activity in assay [15] turned out to be 2.2%; in assay [16], 5.6%. The inhibition entry in assay [6], in assay [7] and in [8] was “Active” each time. Moreover, the inhibition result in [2] and in assay [9] was “Dose-dependent effect” throughout. In addition, the IC50 in [2] came to 5.71 µg/mL (≈ 12.8 µM); in assay [3], 11.9 µg/mL (≈ 26.7 µM); in assay [4], 4.58 µg/mL (≈ 10.3 µM).
Consider `C/C(=N\NC(=O)c1ccc(CSc2nc3ccccc3s2)cc1)c1ccc(C)c([N+](=O)[O-])c1`, for which the IC50 in assay [2], in assay [3] and in assay [4] was > 80 µg/mL in each case.
Take `C/C(=N\NC(=O)CSc1nc2ccccc2s1)c1ccc([N+](=O)[O-])cc1`: the IC50 in [2] is > 80 µg/mL; in [3] it was 35.7 µg/mL (≈ 92.4 µM); in assay [4] it was 39.7 µg/mL (≈ 103 µM).
The corresponding values for `COc1cc(/C=N/NC(=O)c2ccc(CSc3nc(C)cc(C)n3)cc2)cc(OC)c1OC` are 33.3 µg/mL (≈ 71.3 µM), 36.8 µg/mL (≈ 78.8 µM) and 17.4 µg/mL (≈ 37.3 µM).
For `COc1cc(/C=N/NC(=O)c2ccc(CSc3nc4ccccc4s3)cc2)cc(OC)c1OC` the same measures were > 80 µg/mL, > 80 µg/mL and > 80 µg/mL.
On to `C/C(=N\NC(=O)c1ccc(CSc2nc(C)cc(C)n2)cc1)c1ccc(C)c([N+](=O)[O-])c1`, for which the IC50 in assay [2], in [3] and in assay [4] was > 80 µg/mL each time.
`C/C(=N\NC(=O)c1ccc(CSc2nc(C)cc(C)n2)cc1)c1ccc(F)cc1`: the Activity was found to be 10.3% in assay [5]; 83.8% in assay [10]; 1.4% in assay [11]; 4.5% in assay [12]; 76.3% in assay [13]; 16.5% in [14]. Besides, the Activity in assay [15] is listed as 2.3%; in [16] it was 4.9%. Further, the inhibition result in [6], in assay [7] and in [8] was “Active” each time. Besides, the inhibition entry in [2] and in assay [9] was “Dose-dependent effect” in each case. Moreover, the IC50 in assay [2] was found to be 4.85 µg/mL (≈ 11.9 µM); in assay [3], 3.88 µg/mL (≈ 9.5 µM); in [4] it was 3.25 µg/mL (≈ 7.96 µM).
Take `O=C(CSc1nc2ccccc2s1)N/N=C/c1c[nH]c2ccccc12`: the inhibition at 40 µg/mL in assay [1] amounted to 55%. Besides, the values for the IC50 in assay [2], in assay [3] and in assay [4] were > 80 µg/mL, > 80 µg/mL and 32.9 µg/mL (≈ 89.7 µM), respectively.
With `O=c1[nH]cc(F)c(=O)[nH]1` [FLUOROURACIL], the inhibition result in assay [2], in assay [9] and in assay [17] was “Dose-dependent effect” throughout. For the same compound, the values for the IC50 in assay [2], in assay [3] and in assay [4] were 36 µg/mL (≈ 277 µM), 17.4 µg/mL (≈ 134 µM) and 10.4 µg/mL (≈ 80 µM), respectively.
Turning to `C/C(=N\NC(=O)c1ccc(CSc2nc3ccccc3s2)cc1)c1ccc([N+](=O)[O-])cc1`, the IC50 in assay [2] amounted to 35.7 µg/mL (≈ 77.2 µM); in assay [3], 31.3 µg/mL (≈ 67.7 µM); in assay [4], 4.46 µg/mL (≈ 9.64 µM).
As to `O=C(CSc1nc2ccccc2s1)N/N=C1\C(=O)Nc2ccccc21`, the inhibition entry in assay [6], in assay [7] and in assay [8] was “Active” throughout. Further, the IC50 in assay [2] was 23.9 µg/mL (≈ 65 µM); in assay [3], 17.7 µg/mL (≈ 48 µM); in assay [4], 13.1 µg/mL (≈ 35.6 µM).
In the case of `COc1cc(/C=N/NC(=O)CSc2nc3ccccc3s2)cc(OC)c1OC`, the IC50 in assay [2], in assay [3] and in assay [4] was > 80 µg/mL throughout.
As to `C/C(=N\NC(=O)CSc1nc2ccccc2s1)c1ccc(C)c([N+](=O)[O-])c1`, the inhibition result in assay [6], in [7] and in assay [8] was “Active” each time. The inhibition result in assay [2], in assay [9] and in assay [17] was “Dose-dependent effect” throughout. Moreover, the figures for the half-inhibitory concentration (IC50) in assay [2], in assay [3] and in assay [4] were 33 µg/mL (≈ 82.3 µM), 17.8 µg/mL (≈ 44.5 µM) and 10.1 µg/mL (≈ 25.1 µM), respectively.

Values taken from ChEMBL document CHEMBL3734752, “Acylhydrazone derivatives as potential anticancer agents: Synthesis, bio-evaluation and mechanism of action” (Bioorg Med Chem Lett, 2015).
